Target: T1, Olfactory receptor (Rattus norvegicus, UniProt D3Z9H0)
T1 sequence (D3Z9H0 whole entry): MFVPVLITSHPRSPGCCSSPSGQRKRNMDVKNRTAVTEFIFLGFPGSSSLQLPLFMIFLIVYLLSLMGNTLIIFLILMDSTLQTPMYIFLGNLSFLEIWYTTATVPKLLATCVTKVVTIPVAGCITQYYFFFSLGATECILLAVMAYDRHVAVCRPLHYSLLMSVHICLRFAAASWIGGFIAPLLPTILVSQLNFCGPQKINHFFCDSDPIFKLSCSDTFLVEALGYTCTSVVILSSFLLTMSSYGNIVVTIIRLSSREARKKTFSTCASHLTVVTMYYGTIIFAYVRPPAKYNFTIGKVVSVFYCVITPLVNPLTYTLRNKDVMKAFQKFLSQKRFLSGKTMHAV
Assay: Inhibition Assay
Source text: Inhibition assay of olfactory receptors 17 activation.

Row | Compound | IC50 [µM]
1 | O=CCCC1CCCC1 [Aldehydes, 4] | 60
2 | O=CCC1CCCCC1 [Aldehydes, 5] | 37
3 | O=CC1CCCCCC1 [Aldehydes, 6] | 57
4 | CCCCC=O [Aldehydes, C5] | 460
5 | CCCCCC=O [Aldehydes, C6] | 133
